What all share (experiment): Preemergent activity
Holding throughout (assay type): in vivo

For one test, the system named is Barnyard Grass. Particulars: Echinochloa crus-galli, pre-emergence, read-out: Preemergence Control; for pest or weed control at 70 g/ha: 0.07 kgs/hectare; for pest or weed control at 140 g/ha: 0.14 kgs/hectare; for pest or weed control at 280 g/ha: 0.28 kgs/hectare; for pest or weed control at 560 g/ha: 0.56 kgs/hectare; for pest or weed control at 1120 g/ha: 1.12 kgs/hectare. As for the experimental part:
(§1) In a representative operation, 2-[4-(2-fluoro-4-trifluoromethylphenoxy)phenoxy]propionic acid methyl ester, to be utilized in a series of tests, is dissolved in acetone to one half of the final volume (twice the final concentration) to be used and the acetone solution in each case is admixed with an equal volume of water containing 0.1 percent by weight of Tween-20 surface active material (Tween-20 is a trademark of Atlas Chemical Company). The composition, generally in the nature of an emulsion, was employed to treat separate respective seed beds of sandy loam soil of good nutrient content wherein each seed bed contained separate groups of good viable seeds, each group being of one of a known plant species. The various beds were positioned side by side and exposed to substantially identical conditions of temperature and light. Each bed was maintained so as to prevent any interaction with the test compound in different seed beds. Each seed bed was treated with the composition as a spray employing conventional spraying equipment to deposit a predetermined amount of the compound uniformly throughout the surface of the bed. Another seed bed was treated only with the acetone-Tween-20 water mixture with no chemical added to serve as a control.

The subject of another test is Johnson Grass. The settings on record: Sorghum halepense, pre-emergence, read-out: Preemergence Control; for pest or weed control at 70 g/ha: 0.07 kgs/hectare; for pest or weed control at 140 g/ha: 0.14 kgs/hectare; for pest or weed control at 280 g/ha: 0.28 kgs/hectare; for pest or weed control at 560 g/ha: 0.56 kgs/hectare; for pest or weed control at 1120 g/ha: 1.12 kgs/hectare. Here is the method:
as §1

A further test concerns Wheat. Particulars: Triticum aestivum, pre-emergence, read-out: Preemergence Control; for plant injury at 70 g/ha: 0.07 kgs/hectare; for plant injury at 140 g/ha: 0.14 kgs/hectare; for plant injury at 280 g/ha: 0.28 kgs/hectare; for plant injury at 560 g/ha: 0.56 kgs/hectare; for plant injury at 1120 g/ha: 1.12 kgs/hectare. Here is the method: as §1
Another test deals with Wild Oats. Particulars: Avena fatua, pre-emergence, read-out: Preemergence Control; for pest or weed control at 70 g/ha: 0.07 kgs/hectare; for pest or weed control at 140 g/ha: 0.14 kgs/hectare; for pest or weed control at 280 g/ha: 0.28 kgs/hectare; for pest or weed control at 560 g/ha: 0.56 kgs/hectare; for pest or weed control at 1120 g/ha: 1.12 kgs/hectare. Here is the method: as §1

The next test concerns Yellow Foxtail. The settings on record: Setaria, pre-emergence, read-out: Preemergence Control; for pest or weed control at 70 g/ha: 0.07 kgs/hectare; for pest or weed control at 140 g/ha: 0.14 kgs/hectare; for pest or weed control at 280 g/ha: 0.28 kgs/hectare; for pest or weed control at 560 g/ha: 0.56 kgs/hectare; for pest or weed control at 1120 g/ha: 1.12 kgs/hectare. As for the experimental part: as §1

Each structure is given as a SMILES string.

Regarding `CC(Oc1ccc(Oc2ccc(Br)cc2F)cc1)C(=O)O` (centres unmarked) [OH, 2-(4-(4-Bromo-2-fluorophenoxy)phenoxy)propionic acid], in the test on Barnyard Grass, the pest or weed control at 70 g/ha came out at 50%, the pest or weed control at 140 g/ha came out at 95%, the pest or weed control at 280 g/ha is 100% and the pest or weed control at 560 g/ha came out at 100%. In addition, the pest or weed control at 1120 g/ha in the test with Barnyard Grass came to 100%. In the test on Johnson Grass, the pest or weed control at 70 g/ha was found to be 0%, the pest or weed control at 140 g/ha came out at 60%, the pest or weed control at 280 g/ha amounted to 80% and the pest or weed control at 560 g/ha came out at 100%. The pest or weed control at 1120 g/ha in the test on Johnson Grass was 100%. Further, in the test with Wheat, the plant injury at 70 g/ha is 0%, the plant injury at 140 g/ha was 0%, the plant injury at 280 g/ha is 0% and the plant injury at 560 g/ha stood at 0%. Besides, the plant injury at 1120 g/ha in the test with Wheat was determined as 30%. For the same compound, in the test with Wild Oats, the pest or weed control at 70 g/ha came out at 0%, the pest or weed control at 140 g/ha was 100%, the pest or weed control at 280 g/ha was 90% and the pest or weed control at 560 g/ha worked out at 95%. Moreover, the pest or weed control at 1120 g/ha in the test on Wild Oats stood at 100%. Moreover, in the test with Yellow Foxtail, the pest or weed control at 70 g/ha is 0%, the pest or weed control at 140 g/ha came out at 0%, the pest or weed control at 280 g/ha amounted to 90% and the pest or weed control at 560 g/ha worked out at 100%. For the same compound, the pest or weed control at 1120 g/ha in the test with Yellow Foxtail was 100%.

In the case of `Cc1cc(Cl)ccc1NC(=O)C(C)Oc1ccc(Oc2ccc(Br)cc2F)cc1` (centres unmarked), in the test with Barnyard Grass, the pest or weed control at 140 g/ha was found to be 0%, the pest or weed control at 560 g/ha is 0% and the pest or weed control at 1120 g/ha came to 100%. Besides, in the test with Johnson Grass, the pest or weed control at 140 g/ha was determined as 0%, the pest or weed control at 560 g/ha amounted to 0% and the pest or weed control at 1120 g/ha came to 60%. In addition, in the test with Wheat, the plant injury at 70 g/ha stood at 0%, the plant injury at 140 g/ha is 0%, the plant injury at 280 g/ha turned out to be 0% and the plant injury at 560 g/ha was determined as 0%. For the same compound, the plant injury at 1120 g/ha in the test with Wheat amounted to 40%. Moreover, in the test with Wild Oats, the pest or weed control at 140 g/ha stood at 0%, the pest or weed control at 560 g/ha was 0% and the pest or weed control at 1120 g/ha was 90%. For the same compound, in the test on Yellow Foxtail, the pest or weed control at 140 g/ha is 0%, the pest or weed control at 560 g/ha amounted to 70% and the pest or weed control at 1120 g/ha stood at 100%.

For `CCCCCCCCOC(=O)C(C)Oc1ccc(Oc2ccc(Br)cc2F)cc1` (centres unmarked) [O(CH2)7 CH3], in the test with Barnyard Grass, the pest or weed control at 70 g/ha is 9%, the pest or weed control at 140 g/ha stood at 95%, the pest or weed control at 280 g/ha came out at 100% and the pest or weed control at 560 g/ha was 100%. Further, the pest or weed control at 1120 g/ha in the test on Barnyard Grass turned out to be 100%. Further, in the test on Johnson Grass, the pest or weed control at 70 g/ha came out at 0%, the pest or weed control at 140 g/ha is 0%, the pest or weed control at 280 g/ha was 100% and the pest or weed control at 560 g/ha was found to be 100%. The pest or weed control at 1120 g/ha in the test on Johnson Grass stood at 100%. In the test on Wheat, the plant injury at 70 g/ha was found to be 0%, the plant injury at 140 g/ha was determined as 0%, the plant injury at 280 g/ha was found to be 0% and the plant injury at 560 g/ha came to 0%. In addition, the plant injury at 1120 g/ha with Wheat worked out at 90%. In the test with Wild Oats, the pest or weed control at 70 g/ha amounted to 0%, the pest or weed control at 140 g/ha is 0%, the pest or weed control at 280 g/ha came to 100% and the pest or weed control at 560 g/ha came out at 100%. For the same compound, the pest or weed control at 1120 g/ha in the test with Wild Oats worked out at 100%. Also, in the test with Yellow Foxtail, the pest or weed control at 70 g/ha was 0%, the pest or weed control at 140 g/ha turned out to be 0%, the pest or weed control at 280 g/ha was determined as 80% and the pest or weed control at 560 g/ha was found to be 90%. Further, the pest or weed control at 1120 g/ha with Yellow Foxtail turned out to be 100%.

In the case of `C=CCOC(=O)C(C)Oc1ccc(Oc2ccc(Br)cc2F)cc1` (centres unmarked) [OCH2 CCH2], in the test on Barnyard Grass, the pest or weed control at 70 g/ha came to 95%, the pest or weed control at 140 g/ha was found to be 100%, the pest or weed control at 280 g/ha was determined as 100% and the pest or weed control at 560 g/ha is 100%. The pest or weed control at 1120 g/ha in the test with Barnyard Grass worked out at 100%. For the same compound, in the test with Johnson Grass, the pest or weed control at 70 g/ha was found to be 0%, the pest or weed control at 140 g/ha came to 0%, the pest or weed control at 280 g/ha is 80% and the pest or weed control at 560 g/ha was 90%. In the test on Johnson Grass, the pest or weed control at 1120 g/ha was found to be 100%. Further, in the test on Wheat, the plant injury at 70 g/ha is 0%, the plant injury at 140 g/ha is 0%, the plant injury at 280 g/ha amounted to 0% and the plant injury at 560 g/ha was 0%. For the same compound, the plant injury at 1120 g/ha in the test on Wheat turned out to be 70%. In the test on Wild Oats, the pest or weed control at 70 g/ha came out at 0%, the pest or weed control at 140 g/ha was found to be 0%, the pest or weed control at 280 g/ha is 40% and the pest or weed control at 560 g/ha amounted to 70%. Besides, in the test on Wild Oats, the pest or weed control at 1120 g/ha worked out at 70%. In addition, in the test on Yellow Foxtail, the pest or weed control at 70 g/ha came out at 30%, the pest or weed control at 140 g/ha is 30%, the pest or weed control at 280 g/ha was found to be 90% and the pest or weed control at 560 g/ha stood at 100%. Besides, in the test on Yellow Foxtail, the pest or weed control at 1120 g/ha came out at 100%.

For `CC(Oc1ccc(Oc2ccc(Br)cc2F)cc1)C(=O)OCCN(C)C` (centres unmarked) [O(CH2)2 N(CH3)2], in the test on Barnyard Grass, the pest or weed control at 70 g/ha turned out to be 70%, the pest or weed control at 140 g/ha was 100%, the pest or weed control at 280 g/ha came to 100% and the pest or weed control at 560 g/ha stood at 100%. For the same compound, in the test on Barnyard Grass, the pest or weed control at 1120 g/ha is 100%. Also, in the test with Johnson Grass, the pest or weed control at 70 g/ha was determined as 0%, the pest or weed control at 140 g/ha was 0%, the pest or weed control at 280 g/ha came out at 60% and the pest or weed control at 560 g/ha was determined as 95%. Also, the pest or weed control at 1120 g/ha in the test on Johnson Grass amounted to 100%. In the test with Wheat, the plant injury at 70 g/ha was determined as 0%, the plant injury at 140 g/ha worked out at 0%, the plant injury at 280 g/ha was determined as 0% and the plant injury at 560 g/ha turned out to be 0%. Moreover, the plant injury at 1120 g/ha with Wheat was 0%. Further, in the test on Wild Oats, the pest or weed control at 70 g/ha is 0%, the pest or weed control at 140 g/ha came to 30%, the pest or weed control at 280 g/ha was found to be 30% and the pest or weed control at 560 g/ha was found to be 90%. Besides, in the test with Wild Oats, the pest or weed control at 1120 g/ha turned out to be 99%. In the test on Yellow Foxtail, the pest or weed control at 70 g/ha worked out at 0%, the pest or weed control at 140 g/ha is 0%, the pest or weed control at 280 g/ha was 0% and the pest or weed control at 560 g/ha came out at 100%. The pest or weed control at 1120 g/ha in the test on Yellow Foxtail was found to be 100%.

Turning to `CC(Oc1ccc(Oc2ccc(Br)cc2F)cc1)C(=O)Nc1ccc(C(F)(F)F)cc1` (centres unmarked), in the test with Barnyard Grass, the pest or weed control at 140 g/ha stood at 0% and the pest or weed control at 1120 g/ha is 50%. Besides, in the test with Johnson Grass, the pest or weed control at 140 g/ha was determined as 0% and the pest or weed control at 1120 g/ha came to 20%. Further, in the test with Wheat, the plant injury at 70 g/ha turned out to be 0%, the plant injury at 140 g/ha was determined as 0%, the plant injury at 280 g/ha was 0% and the plant injury at 560 g/ha is 0%. In addition, the plant injury at 1120 g/ha with Wheat worked out at 0%. In the test on Wild Oats, the pest or weed control at 140 g/ha worked out at 0% and the pest or weed control at 1120 g/ha is 60%. In the test with Yellow Foxtail, the pest or weed control at 140 g/ha was 0% and the pest or weed control at 1120 g/ha came out at 0%.

On to `CC(Oc1ccc(Oc2ccc(Br)cc2F)cc1)C(=O)N(C)c1ccccc1` (centres unmarked), for which, in the test on Barnyard Grass, the pest or weed control at 140 g/ha is 0% and the pest or weed control at 1120 g/ha was 0%. Further, in the test with Johnson Grass, the pest or weed control at 140 g/ha worked out at 0% and the pest or weed control at 1120 g/ha was 0%. Further, in the test on Wheat, the plant injury at 70 g/ha stood at 0%, the plant injury at 140 g/ha came out at 0%, the plant injury at 280 g/ha amounted to 0% and the plant injury at 560 g/ha came out at 0%. For the same compound, in the test on Wheat, the plant injury at 1120 g/ha stood at 0%. In addition, in the test on Wild Oats, the pest or weed control at 140 g/ha amounted to 0% and the pest or weed control at 1120 g/ha was determined as 0%. In addition, in the test on Yellow Foxtail, the pest or weed control at 140 g/ha came to 0% and the pest or weed control at 1120 g/ha was 0%.
